Measured values reported in US20150087649A1, “TREATING DISORDERS ASSOCIATED WITH ABERRANT ADRENOCORTICAL CELL BEHAVIOR” (Atterocor, Inc., priority 2013, published 2015).
Where two headings read alike, the source gives them in different places. One block for each compound: values may come before it.

Tests used:
human ACAT2 = biological target: T1, human ACAT2 (Homo sapiens, UniProt O75908); assay: Fluorescent NBD-cholesterol esterification assay in AC29 stable transfectants, Table 2; format: cell-based
T1 sequence (O75908 1-522): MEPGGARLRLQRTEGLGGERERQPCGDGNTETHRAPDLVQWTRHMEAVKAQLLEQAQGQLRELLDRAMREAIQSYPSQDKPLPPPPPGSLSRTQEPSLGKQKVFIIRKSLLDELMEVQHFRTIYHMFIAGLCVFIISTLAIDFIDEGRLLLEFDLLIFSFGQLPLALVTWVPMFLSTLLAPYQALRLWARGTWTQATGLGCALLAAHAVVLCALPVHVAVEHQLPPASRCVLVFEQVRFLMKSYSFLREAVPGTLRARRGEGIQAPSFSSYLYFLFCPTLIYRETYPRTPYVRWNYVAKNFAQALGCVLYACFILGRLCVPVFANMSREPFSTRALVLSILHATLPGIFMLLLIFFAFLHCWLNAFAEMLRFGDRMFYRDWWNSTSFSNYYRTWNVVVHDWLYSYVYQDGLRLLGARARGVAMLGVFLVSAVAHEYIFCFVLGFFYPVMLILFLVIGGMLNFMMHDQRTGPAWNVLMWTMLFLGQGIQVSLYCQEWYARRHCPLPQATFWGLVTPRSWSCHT
Protocol: [The procedure below names another target; the source lists this target under the same test.] (§1) Cells were maintained in monolayer at 37° C. in 5% CO2 in Ham's F-12 medium supplemented with 1% Eagle's vitamins, penicillin (100 units/ml), streptomycin (100 μg/ml), and 10% heat-inactivated fetal bovine serum, and cells were typically grown to 70-90% confluence for all experiments.
(§2) Human ACAT1 activity was assessed using a fluorescent cell-based assay as described in Lada et al. (supra). The assay uses 22-[N-(7-nitrobenz-2-oxa-1,3-diazol-4-yl)amino]-23,24-bisnor-5-cholen-3-ol (NBD-cholesterol), a fluorescent sterol analog in which the NBD moiety replaces the terminal segment of the alkyl tail of cholesterol. […] In a polar environment, NBD-cholesterol is weakly fluorescent. In a nonpolar environment, NBD-cholesterol strongly is strongly fluorescent. The fluorescent property of NBD-cholesterol is used to measure ACAT activity, as cholesterol is a polar lipid and cholesteryl ester is nonpolar. 3×10^5 cells per well were plated on Falcon 96-well culture plates and allowed to recover overnight. Assays were performed with cells that are at least 80% confluent. Media was aspirated and wells were pre-incubated with 100 μL of dilutions of control and test compounds from 1000× stock solutions in DMSO (or other neutral diluent e.g., methanol, ethanol, or water) for 20 minutes. Media was removed and replaced with 100 μL of medium containing the same dilution of compound or vehicle as in the pre-incubation and 1 μg/ml NBD-cholesterol and incubated for 6 hr at 37° C. (Lada et al., supra). […] Parental AC29 cells incubated with NBD-cholesterol or ACAT1-expressing cells incubated with NBD-cholesterol and the […] were used to determine background fluorescence attributable to free NBD-cholesterol. After incubation, medium is removed, and the cells were washed two times with cold balanced salt solution (BSS). […] Cholesteryl ester (CE) fluorescence was calculated by subtracting the background from the total fluorescence, and these values were normalized by cellular protein.

human ACAT1 = biological target: T2, human ACAT1 (Homo sapiens, UniProt P35610, Q526R); assay: Fluorescent cell-based assay measuring esterification of NBD-cholesterol in AC29 cells expressing huACAT1
T2 construct: expressed in transfected cells
T2 sequence (P35610 1-550 Q526R): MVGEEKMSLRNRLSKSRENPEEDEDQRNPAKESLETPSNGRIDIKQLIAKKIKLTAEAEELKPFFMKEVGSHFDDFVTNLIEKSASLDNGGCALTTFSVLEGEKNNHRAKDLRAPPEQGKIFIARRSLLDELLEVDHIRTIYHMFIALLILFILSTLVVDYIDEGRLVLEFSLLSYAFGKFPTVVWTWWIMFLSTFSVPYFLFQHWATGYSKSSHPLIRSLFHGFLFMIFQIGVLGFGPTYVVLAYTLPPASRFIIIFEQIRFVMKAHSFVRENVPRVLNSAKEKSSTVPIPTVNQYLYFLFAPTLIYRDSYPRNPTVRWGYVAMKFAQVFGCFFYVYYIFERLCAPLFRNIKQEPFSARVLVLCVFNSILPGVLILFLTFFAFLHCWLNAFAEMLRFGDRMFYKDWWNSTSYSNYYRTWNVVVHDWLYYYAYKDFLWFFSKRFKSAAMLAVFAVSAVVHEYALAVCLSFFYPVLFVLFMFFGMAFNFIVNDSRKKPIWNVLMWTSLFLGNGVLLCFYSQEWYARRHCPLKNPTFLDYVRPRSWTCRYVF
Excerpt: In the methods described herein, the agent inhibits the ability of huACAT1 to catalyze the esterification of free cholesterol into cholesteryl ester. […] AC29 cells lack endogenous ACAT1 activity and are transfected to express human ACAT1. The assay uses 22-[N-(7-nitrobenz-2-oxa-1,3-diazol-4-yl)amino]-23,24-bisnor-5-cholen-3-ol (NBD-cholesterol), a fluorescent sterol analog in which the NBD moiety replaces the terminal segment of the alkyl tail of cholesterol. […] In a polar environment, NBD-cholesterol is weakly fluorescent. In a nonpolar environment, NBD-cholesterol is strongly fluorescent. The fluorescent property of NBD-cholesterol is used to measure ACAT activity, as cholesterol is a polar lipid and cholesteryl ester is nonpolar. Untransfected AC29 cells or AC29 cells expressing huACAT1 treated with a known ACAT inhibitor can be used to determine background fluorescence due to free-NBD-cholesterol.
as §1, §2

adrenocortical cells = details: as reported in the literature; cited from earlier work
H295R cells [1] = assay: Caspase-3/7 activity (Apotox-Glo) in H295R cells with exogenous cholesterol; format: cell-based, human; details: compound at its ACAT1 IC50 concentration, 45 ug/mL exogenous cholesterol, 5 hours
Protocol: Commercially-available assay kits may also be employed to measure Caspase 3/7 activity, including for example the Apotox-Glo Assay Kit (Promega). […] H295R cells are plated at 500,000 cells/well in a 12 well plate. After overnight incubation at 37° C., media is removed and replaced with media containing vehicle (DMSO) or one of the ACAT1 inhibitors at its ACAT1 IC50 concentration in the presence of 45 ug/mL exogenous cholesterol. After 5 hours of treatment, cells are harvested, washed and assayed for Caspase-3/7 activity using the Apotox-Glo Assay Kit (Promega).

H295R cells [2] = assay: XBP-1 splicing (unfolded protein response) in H295R cells with exogenous cholesterol; format: cell-based, human; details: compound at its ACAT1 IC50 concentration, 45 ug/mL exogenous cholesterol, 5 hours
Protocol: Treatment of H295R cells by an agent can result in chronic disruption of cholesterol homeostasis that may lead to activation of the UPR and/or triggering of the programmed cell death response and the induction apoptotic markers.
H295R adrenocortical cells are plated at 500,000 cells/well in a 12-well culture plate as described in Example 8. […]. After 5 hours of treatment, RNA is extracted using the Qiagen RNEasy® Plus kit and 1 μg RNA is reverse transcribed using Applied Biosystems® High-Capacity cDNA Reverse Transcription Kit. XBP-1 splicing product is amplified by PCR using primer pairs that allow detection of the activated isoform (5′-[…]-3′ (SEQ ID NO:15) and 5′-[…]-3′ (SEQ ID NO:16)) under the following conditions: 1) 95° C. for 30 sec, 2) 95° C. for 15 sec; 3) 50° C. for 15 sec, 4) 68° C. for 30 sec. […] Amplification steps 2 through 4 are repeated for 30 cycles. PCR product is resolved on a 5% agarose gel. DTT treated cells serve as a positive control for XBP-1 splicing. An increase in the XBP-1 splice variant expression of greater than 20% is considered significant.

H295R = assay: Free and esterified cholesterol in H295R cells with exogenous cholesterol; format: cell-based, human; details: compound at its ACAT1 IC50 concentration, 45 μg/ml cholesterol
Protocol: In this study, H295R were plated at 200,000 cells/well in a 24 well plate. After overnight incubation at 37° C., media was removed and replaced with treatment media (test compound at its ACAT1 IC50 concentrations containing 45 μg/ml cholesterol) or vehicle (DMSO). After treatment of cells for various lengths of time (minutes to hours), media was removed and cells are washed twice with cold PBS. 200 ul of hexane/isopropanol (3:2) was then added to each well, the plate was rocked at room temperature for 1 hour, and the supernatant was transferred to glass vials and allowed to air dry. Residual lipids were resuspended and total cholesterol and free cholesterol were measured using the Cholesterol Fluorometric Assay Kit (Cayman Chemical). Cholesterol ester was determined by subtracting free cholesterol from total cholesterol.

[3] = system: adrenocortical carcinoma (ACC); details: cited from earlier work
[4] = Table 2, second IC50 column (head repeats huACAT1), AC29 transfectants, NBD-cholesterol, read-out: IC50 huACAT1
[5] = Table 2, first IC50 column, AC29 cells expressing huACAT1, 1 μg/ml NBD-cholesterol, 6 hr, read-out: IC50 huACAT1
[6] = Table 3, determined as described in Example 1, read-out: ACAT1 IC50

Compound: CC(C)c1cccc(C(C)C)c1OC(=O)NS(=O)(=O)Oc1c(C(C)C)cccc1C(C)C [Compound 1]
- IC50 (human ACAT2): 440 nM
- IC50 (human ACAT1): 2400 nM

- IC50 (human ACAT2; [4]): 21 nM
- IC50 (human ACAT1; [5]): 20 nM
Compound: CCCCCCCCCCCCCOC(=O)C(C(=O)Nc1c(C(C)C)cccc1C(C)C)c1ccccc1 (centres unmarked) [Compound 2]

Compound: CCCCCCCCCCCCn1nnc(C(C(=O)Nc2c(C(C)C)cccc2C(C)C)c2ccccc2)n1 (centres unmarked) [Compound 3, 2H-Tetrazole-5-acetamide, N-[2,6-bis(1-methylethyl)phenyl]-2-dodecyl-a-phenyl-]
- Adrenal activity (adrenocortical cells): Adrenal acting
- Caspase-3/7 activity compared to vehicle (H295R cells [1]): significant increases
- splicing of XBP-1 compared to vehicle (H295R cells [2]): significant splicing of XBP-1
- free cholesterol compared to vehicle (H295R): increase in free cholesterol
- IC50 (human ACAT2; [4]): 510 nM
- IC50 (human ACAT1; [5]): 2000 nM
- IC50 (human ACAT1; [6]): 11 nM

- IC50 (human ACAT2; [4]): 80 nM
- IC50 (human ACAT1; [5]): 6 nM
- IC50 (human ACAT1; [6]): 10 nM
Compound: Cc1ccc2oc(CN(Cc3ccccc3)C(=O)Nc3c(F)cc(F)cc3F)c(-c3ccc(Cl)cc3)c2c1 [Compound 5]
- Adrenal activity (adrenocortical cells): Adrenal acting
- Caspase-3/7 activity compared to vehicle (H295R cells [1]): significant increases
- splicing of XBP-1 compared to vehicle (H295R cells [2]): significant splicing of XBP-1
- free cholesterol compared to vehicle (H295R): increase in free cholesterol

- IC50 (human ACAT2; [4]): 18 nM
- IC50 (human ACAT1; [5]): 1.8 nM
Compound: CCCCC[C@H]1C=C[C@@H](CCCCC)SC1[C@@H](C)Nc1c(SC)cc(C)nc1SC (some centres unmarked) [Compound 6]

- IC50 (human ACAT1; [5]): 540 nM
Compound: CCCCCCCCC(C)(C)C(=O)Nc1c(OC)cc(OC)cc1OC [Compound 7]

Compound: Clc1ccc(C(c2ccccc2Cl)C(Cl)Cl)cc1 (centres unmarked) [mitotane]
- delay of disease progression, average ([3]; ACC patients that derive a therapeutic benefit): five
- share of patients with increased progression-free survival ([3]; ACC patients): one-quarter to one-third
